Measured values: patent US5605929A, “Methods and compositions for inhibiting 5α-reductase activity” (priority 1995, dated 1997)
pIC50: −log10 of the molar value. “And” between values parts separate entries of the source, which are not always exact repeats. Equal entries are not always repeated. Where two headings read alike, the source gives them in different places.

Columns and labels:
[1] = EGCG ip 7 days, male rats, body and organ weights; type: in vivo, rat; conditions: based on the increase in the weight
Protocol: (§1) Male Sprague-Dawley rats (body weight 180 g±10 g) were used. Each group had 5 rats. […] Rats in the control group received 0.1 ml 30% ethanol.

[2] = system: male accessory reproductive organs and preputial organs; assay: EGCG ip 7 days, male rats, body and organ weights; type: in vivo, rat
Protocol: as §1

[3] = system: prostate and preputial glands; assay: EGCG ip 7 days, normal and castrated rats with androgen; type: in vivo, rat; conditions: for prostate weight reduction: 5 mg/day
Protocol: Male Sprague-Dawley rats, 60±5 g body weight, were used. Rats were divided into 6 groups. Each group had 5 rats. Groups 1 and 2 were normal rats while the other 4 groups had rats castrated on the first day. […] The control rats (Group 1) received 0.1 ml of 30% ethanol.

[4] = system: androgen-dependent organs; type: in vivo, rat
Protocol: The control rats were injected with 0.3 ml of 30% ethanol.

[5] = system: Human prostate cancer PC-3 cells; assay: PC-3 tumor growth in nude mice; type: in vivo, nude mice (human tumor)
Protocol: Human prostate cancer PC-3 cells were grown in culture medium. About one million cells were injected into male nude mice and the growth of tumors were followed. Within two weeks, the tumor grew to about 100 mm^3. […] The 3 controls received water only.

[6] = system: type 1 5α-reductase; type: biochemical
Protocol: [^3 H]4-MA binding assay were described in detail previously (Liang and Liao, 1992; Liang et al., 1983). […] The reaction was started by the addition of 25 μl of microsomes (25 μg protein). After 30-60 min incubation at 0° C., the [^3 H]4-MA bound to microsomes was collected on a Whatman GF/F glass fiber, washed and radioactivity determined (Liang and Liao, 1992).
The reaction was started by the addition of 25 μl of microsomes (25 μg protein). The mixture was incubated at 37° for 30-60 min and stopped by addition of 0.5 ml of ethyl acetate and mixing for 1 min. The organic solvent extract was removed under vacuum.

[7] = biological target: T1, HIV-1 reverse transcriptase (Human immunodeficiency virus type 1 group M subtype B, UniProt P04585); conditions: cited from earlier work
T1 construct: HIV-1 reverse transcriptase

[8] = system: hamster flank organ; conditions: for Pigmented macule, right flank organ / Pigmented macule, left flank organ (vehicle): 15 days; for Pigmented macule, right flank organ: vehicle 23.5 ± 3.8
Protocol: Animals were divided into 10/group. The right flank organ was treated daily with 5 μl solution containing vehicle (ethanol) alone or γ-LA (0.5, 1, and 2 mg) for 15-25 days. The left flank organ of all animals received the same volume of vehicle.
The lengths of the long axis and the short axis of the pigmented spot (pigmented macule) were measured using a caliper with digital display (Digimatic, Mitutoyo Corp., Japan). […] The data are presented as mean ± standard deviation.

[9] = system: forehead sebum production; assay: Forehead sebum production (L/R ratio), human male; type: in vivo
Protocol: A volunteer was used to test and analyze sebum production from the forehead region. The forehead was washed thoroughly by soap twice and cleaned by 70% isopropyl alcohol twice. Sebum production was measured 30 to 60 minutes later by a sebum meter (Courage/Khazaka Electronic GmbH, Germany). The sebum meter tape probe (7 mm×8 mm) covered 56 mm^2 area in each measurement. Ten measurements were made within the 4 cm square area (16 cm^2) located at the middle of the left or right side forehead between the eyebrow and the hair line.
The sebum meter detected the difference in the transparency of the tape before and after the tape was placed on the forehead for 30 seconds and expressed the difference in an arbitrary number (S-value) between 0 to 300 (or higher). S-values of sebum accumulated on the foreheads of men are usually 200 to 300.

[10] = biological target: T2, 5α-Reductase of Rat Liver Microsomes (Rattus norvegicus, UniProt P24008)
T2 sequence (P24008 1-259): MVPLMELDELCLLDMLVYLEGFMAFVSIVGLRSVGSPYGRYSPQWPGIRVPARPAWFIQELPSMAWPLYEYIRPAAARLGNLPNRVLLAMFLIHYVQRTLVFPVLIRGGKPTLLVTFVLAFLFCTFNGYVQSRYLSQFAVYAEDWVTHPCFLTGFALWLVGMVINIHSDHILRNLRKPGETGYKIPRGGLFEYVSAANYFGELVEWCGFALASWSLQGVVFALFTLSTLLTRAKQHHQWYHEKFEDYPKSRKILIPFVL

[11] = system: flank organs, seminal vesicles, prostate and other organs
[12] = based on the increase in the weight

## O=C(O[C@@H]1Cc2c(O)cc(O)cc2O[C@@H]1c1cc(O)c(O)c(O)c1)c1cc(O)c(O)c(O)c1 [EGCG, (-)Epigallocatechin-3-gallate]
[1]
  Body weight, % of Control, Increase: 20.3 % of Control
[2]; 15 mg/day, 7 days, control 238.2 ± 10.6
  final body weight: 191.8 ± 12.0 g
[2]; 15 mg/day, control 78.0 ± 5.9
  Coagulating gland: 45.5 ± 11.7 mg
[2]; 15 mg/day, control 126.8 ± 24.8
  Preputial gland: 76.1 ± 33.1 mg
[2]; 15 mg/day, control 201.9 ± 36.2
  Ventral prostate: 142.2 ± 10.7 mg
[2]; 15 mg/day, control 234.3 ± 11.7
  Seminal Vesicle: 164.9 ± 30.4 mg
[2]; based on the full weight
  Coagulating gland, % of Control, Final: 58.3 % of Control
  Final body weight, % of Control, Final: 80.5 % of Control
  Preputial gland, % of Control, Final: 60.0 % of Control
  Seminal Vesicle, % of Control, Final: 70.4 % of Control
  Ventral prostate, % of Control, Final: 70.4 % of Control
[2]; [12]
  Coagulating gland, % of Control, Increase: 39.8 % of Control
  Seminal Vesicle, % of Control, Increase: 52.3 % of Control
  Ventral prostate, % of Control, Increase: 62.0 % of Control
[3]; castrated + 5α-DHT
  prostate weight reduction: no reduction
[3]; castrated + testosterone
  prostate weight reduction: about 23%
[3]; normal and castrated rats with testosterone or 5α-DHT, 7 days
  body weight reduction: 8±1%
[3]; normal rats
  prostate weight reduction: about 30%
[3]; rat, in vivo
  pathology examination of organs and blood: did not reveal any abnormal growth or pathogenic effects
[4]; 10 mg per day
  body weight reduction: about 10%
  coagulating glands weight reduction: about 30%
  dorsolateral prostate weight reduction: about 30%
  effect on weights of testis and kidney: not significant
  preputial glands weight loss: 20 to 25%
  seminal vesicles weight loss: 20 to 25%
  ventral prostate weight reduction: about 30%
[4]; 10 mg per day, discussion
  body weight loss: less than 10%
  prostate weight loss: more than 30%
[4]; 15 mg per day
  body weight reduction: about 25%
  effect on weights of testis and kidney: ≤ 10%
[4]; 15 mg per day, prostates, coagulating glands, seminal vesicles, preputial glands
  weight reduction for all of these organs: ≥ 60%
[4]; application stopped, FIG. 38
  reversibility of body weight effect: reversible
[4]; male rats, ventral and dorsolateral prostates, coagulating glands, seminal vesicles, preputial glands
  organ weights: without affecting the weight of testis or kidney
[5]; FIG. 33, 1 mg/day, two weeks, controls about 450
  tumor size: smaller than 100 mm^3
[5]; FIG. 34, 1400 mm^3 tumor, after 2 weeks of EGCG
  tumor size: about 850 mm^3
[5]; FIG. 34, 1400 mm^3 tumor, after another 2 weeks of EGCG
  tumor size: about 500 mm^3
[5]; FIG. 34, during the 2 week injection
  tumor size: about 100 mm^3
[5]; FIG. 34, within 2 weeks after injection stopped
  tumor size: about 800 mm^3
[5]; FIG. 34, within 3 weeks after injection stopped
  tumor size: over 1200 mm^3
[6]
  competition with testosterone or NADPH: did not appear to compete with testosterone or NADPH
[7]
  pIC50: 7.40

## CCCCC/C=C\C/C=C\C/C=C\CCCCC(=O)O [γ-Linolenic acid, γ-linolenic acid]
[8]; FIG. 32, 1 and 2 mg
  growth rate of pigmented macules: dramatically reduced
[8]; Table 7, 0.5 mg
  change of pigmented macule (#): -34%
  change of pigmented macule (*): -19%
[8]; Table 7, 0.5 mg/day
  Pigmented macule, right flank organ: 19.0 ± 3.6 mm^2
[8]; Table 7, 1.0 mg
  change of pigmented macule (#): -63%
  change of pigmented macule (*): -54%
[8]; Table 7, 1.0 mg/day
  Pigmented macule, right flank organ: 10.8 ± 2.7 mm^2
[8]; Table 7, group 2, right treated with 0.5 mg
  Pigmented macule, left flank organ (vehicle): 28.6 ± 4.0 mm^2
[8]; Table 7, group 3, right treated with 1.0 mg
  Pigmented macule, left flank organ (vehicle): 29.2 ± 4.8 mm^2
[8]; hamster, in vivo
  effect on contralateral pigmented macules: not affected
[9]; 20 mg twice a day, 6 days
  L/R sebum ratio at end of treatment: 0.22
[9]; 16 days after stop
  L/R sebum ratio recovered after treatment stopped: 1.20±0.14
[10]
  extent of inhibition by 10 μM γ-LA: 93% and 52% and 88%
  inhibition before removal of free γ-LA: 78%
  maximal binding of [^3 H]4-MA: 0.45 pmol/10 μg protein and 0.40 pmol/10 μg protein
  onset of inhibition: within a minute
[10]; reversibility test
  inhibition after microsomes reisolated to remove free γ-LA: 63%
[11]; after injections, control 12.9±2.2
  left flank organ area: 9.9±2.4
[11]; after injections, control 14.6±1.5
  right flank organ area: 9.8±2.5 mm^2
[11]; control 0.022±0.004 g
  adrenal weight: 0.021 ± 0.004 g
[11]; control 0.156±0.026 g
  seminal vesicles and prostate weight: 0.106 ± 0.022 g
[11]; control 0.157±0.027
  spleen weight: 0.1867±0.048
[11]; control 1.060±0.086 g
  kidney weight: 1.121 ± 0.073 g
